According to patent publication US9453849B2, “Methods for staining cells for identification and sorting” (PREMIUM GENETICS (UK) LIMITED, priority 2005, dated 2016):
Like-named read-outs stand apart in the source and are kept apart here.

Assays:
DNA = conditions: cited from earlier work
cell membranes = conditions: not told; cited from earlier work

Description for Bovine sperm: A sample cell was formed by two parallel glass slides coated with 1,500-2000 angstroms (Å) of indium tin oxide (ITO). The slides were separated by fragments of number zero glass cover slips, yielding a slide separation of 100 millimeters (mm).
The sample cell was connected to a resistor-capacitator (RC) circuit by alligator clips. A direct current (DC) power supply was used to charge a capacitor. When a switch was thrown, the discharging capacitor generated a time-dependant and spatially uniform electric field across the sample. An oscilloscope was used to monitor the voltage across the sample cell as a function of time.
The RC circuit formed by the sample cell and capacitor allowed for a well-controlled electric field to be generated. The resistance (R) of the circuit was left floating—that is, determined by the geometry and content of the sample cell. Typical R values ranged from 2-10,000 watts (W) depending primarily on the electrical conductivity of the buffer. The capacitance was varied from 0.1 millifarads (mF) to 1000 mF.
Bovine sperm that had been previously frozen were thawed for 60 seconds in a 96° F. water bath. Sperm were then centrifuged at 2,000 rotations per minute (rpm) for two minutes and the supernatant decanted. Sperm were then re-suspended with 0.35 M sucrose to partially dehydrate the sperm. The sperm solution was then incubated at 96° F. for 15 minutes and then transferred to the sample cell of the electroporation unit.
A voltage was applied to the capacitor circuit, and then the power supply was disconnected. A switch was then thrown and the capacitor discharged across the sample cell. These steps were carried out within 15 seconds of transferring the sperm to the sample cell to retain a random orientation of sperm with respect to the electric field. Electroporation was carried out on sperm in isotonic (0.25 M sucrose) and hypertonic (0.35 M sucrose) solutions. In each case, 10 V was applied to the capacitor and a time constant of 0.26 milliseconds (ms) measured.
A solution of 0.1 M sucrose and the DNA-specific dye, propidium iodide, was then injected into the sample cell. Fluorescence microscopy is used to image the sperm.
To distinguish fluorescent dead cells from fluorescent live cells, sperm motility was assessed.

Cc1c2oc3c(C)c(N)cc(C(=O)N[C@@H]4C(=O)N[C@H](C(C)C)C(=O)N5CCC[C@H]5C(=O)N(C)CC(=O)N(C)[C@@H](C(C)C)C(=O)O[C@@H]4C)c3nc-2c(C(=O)N[C@@H]2C(=O)N[C@H](C(C)C)C(=O)N3CCC[C@H]3C(=O)N(C)CC(=O)N(C)[C@@H](C(C)C)C(=O)O[C@@H]2C)c(N)c1=O [7-AAD (7-amino-actinomycin D), 7-amino-actinomycin D]
base selectivity (Applications) (DNA): GC-selective

COc1ccc2nc3cc(Cl)ccc3c(N)c2c1 [ACMA, 9-amino-6-chloro-2-methoxyactridine]
base selectivity (Applications) (DNA): AT-selective

COc1ccc2nc3cc(Cl)ccc3c(NCCCNCCCCNCCCNc3c4ccc(Cl)cc4nc4ccc(OC)cc34)c2c1 [Acridine homodimer]
permeability to cell membranes (Applications) (cell membranes): Impermeant
DNA affinity (Applications) (DNA): High-affinity DNA binding
base selectivity (Applications) (DNA): AT-selective

N=C(N)c1ccc(-c2cc3ccc(C(=N)N)cc3[nH]2)cc1 [DAPI]
permeability to cell membranes (Applications) (cell membranes): Semi-permeant
base selectivity (Applications) (DNA): AT-selective

CN1CCN(c2ccc3nc(-c4ccc5nc(-c6ccc(N(C)C)cc6)[nH]c5c4)[nH]c3c2)CC1 [Hoechst 34580]
base selectivity (Applications) (DNA): AT-selective
dsDNA selectivity (Applications) (DNA): dsDNA-selective binding

CC[n+]1c(/C=C/C=C/c2ccc(N(C)C)cc2)ccc2cc(N(C)C)ccc21.[O-][Cl+3]([O-])([O-])[O-] [LDS 751]
permeability to cell membranes (Applications) (cell membranes): Permeant

CC[N+](C)(CC)CCC[n+]1c(-c2ccccc2)c2cc(N)ccc2c2ccc(N)cc21.[I-].[I-] [propidium iodide]
permeability to cell membranes (Applications) (cell membranes): Impermeant
increase in the number of damaged and non-motile sperm (Bovine sperm): 68%
loss of motile sperm compared to the control (Bovine sperm): 70%
motile and fluorescent sperm (Bovine sperm; control samples unexposed to electric fields): did not yield motile and fluorescent sperm
motile and fluorescent sperm (Bovine sperm; electroporated, 10 V, time constant 0.26 ms, hypertonic/hypotonic solution (0.35 M sucrose, then 0.1 M sucrose with dye)): motile and fluorescent sperm were observed
motile and fluorescent sperm (Bovine sperm; electroporated, 10 V, time constant 0.26 ms, isotonic solution (0.25 M sucrose)): motile and fluorescent sperm were observed
enhancement of the number of motile and fluorescent sperm (Bovine sperm; hypertonic/hypotonic solution compared with isotonic solution): approximately five-ten
fluorescence of observed motile sperm (Bovine sperm; hypertonic/hypotonic solution exposed to the electric field): displayed fluorescence

Ethidium homodimer-1 [Ethidium homodimer-1 (EthD-1)]
DNA affinity (Applications) (DNA): High-affinity DNA labeling

Ethidium homodimer-2 [Ethidium homodimer-2 (EthD-2)]
DNA affinity (Applications) (DNA): Very high-affinity DNA labeling
